Where two headings read alike, the source gives them in different places.
Experiments:
[1] = in vivo
Procedure: The pharmacokinetic studies were carried out in healthy male Wistar rats (250–300 g). The animals were fasted overnight before dosing with free access to water. The animals were acclimatized to laboratory conditions over the week before experiments and fed with standard rat diet, under controlled conditions of a 12 : 12 h light : dark cycle, with a temperature of 22 ± 3°C and relative humidity of 50 ± 5% RH. The experimental protocol was approved by the Institutional Animal Ethical Committee (AACP/IAEC/Jun-2012-02).
Eighteen rats were randomly separated into three groups (six animals in each group).
At regular time intervals 0, 1, 2, 4, 6, 8, 12, and every 24 h, for 10 days, samples of blood were withdrawn (100 μL) from the retroorbital plexus by microcapillary technique under light ether anesthesia into heparinized microcentrifuge tubes (50 units heparin/mL of blood).
The supernatant was decanted into a China dish and evaporated to dryness at room temperature. This was further reconstituted with 100 μL of mobile phase and vortexed for 30 s and 20 μL was injected into an HPLC system. Emtricitabine was detected at a wavelength of 280 nm. The proficiency of nanoparticulate formulations was appraised by administering pure drug orally and measuring the blood levels at 0, 0.25, 0.5, 1.5, 2, 3, 4, 6, 8, 12 and 24 h.

[2] = rat plasma, n = 6
Procedure: Bench-top stability was investigated to ensure that emtricitabine was not degraded in plasma samples at room temperature for a time period to cover the sample preparation. It was measured by divulging the QC samples to ambient laboratory conditions for 10 h. Freeze-thaw stability was measured over three cycles. Because of the need for occasional delayed injection of extraction samples, the stability of reconstituted samples was assessed at ambient temperature for 24 h. The freezer storage stability of emtricitabine in rat plasma at −20°C was evaluated by assaying QC samples at the beginning and one week later. All stability QC samples were analyzed in six replicates.

[3] = male Wistar rats, oral, 15 mg/kg/rat, n = 6, mean ± SD, listed as Free emtricitabine, 15 mg/kg
[4] = male, Wistar, rat, plasma, po, 15 mg/kg
[5] = Bench-top stability, ambient temperature (25°C) for 4 h, spiked 0.1 μg/mL
[6] = Bench-top stability, ambient temperature (25°C) for 4 h, spiked 0.8 μg/mL
[7] = Bench-top stability, ambient temperature (25°C) for 4 h, spiked 2.0 μg/mL
[8] = Freeze-thaw stability, after three freeze-thaw cycles, spiked 0.1 μg/mL
[9] = Freeze-thaw stability, after three freeze-thaw cycles, spiked 0.8 μg/mL
[10] = Freeze-thaw stability, after three freeze-thaw cycles, spiked 2.0 μg/mL
[11] = One-week stability, stored at −16°C, spiked 0.1 μg/mL
[12] = One-week stability, stored at −16°C, spiked 0.8 μg/mL
[13] = One-week stability, stored at −16°C, spiked 2.0 μg/mL

SMILES: Nc1nc(=O)n([C@@H]2CS[C@H](CO)O2)cc1F [Emtricitabine, 5-fluoro-1-(2R, 5S)-[2-(hydroxymethyl)-1,3-oxathiolan-5-yl]cytosine]
- AUMC0–∞ ([1]; male Wistar rats, oral, 15 mg/kg/rat, n = 6, mean ± SD): 178.32 ± 15.095 µg/mL∗h
- AUC0–∞ [1, 3]: 14.835 ± 0.450 µg/mL∗h
- t max [1, 3]: 2.0 ± 0.006 h
- Cmax [1, 4]: 1700 ± 17 ng/mL
- MRT [1, 4]: 12 ± 0.67 h
- half-life [1, 4]: 9.37 ± 0.58 h
- k el [1, 4]: 2.06e-05 s⁻¹
- AUC(0-inf) ([1]; male, Wistar, rat, plasma, po, 15 mg/kg, AUC0–∞, male Wistar rats, 15 mg/kg/rat, n = 6, mean ± SD): 14800 ng·h/mL
- t max ([1]; male, Wistar, rat, plasma, po, 15 mg/kg, t max, male Wistar rats, 15 mg/kg/rat, n = 6, mean ± SD): ≤ 2 h
- AUC(0-inf) ([1]; male, Wistar, rat, plasma, po, 15 mg/kg/rat, AUC0−∞ (Figure 6), Wistar rats, mean ± SEM): 14800 ± 184 ng·h/mL
- Accuracy [2, 5]: 96.0%
- Mean determined concentration [2, 5]: 0.096 µg/mL
- Accuracy [2, 6]: 97.87%
- Mean determined concentration [2, 6]: 0.783 µg/mL
- Accuracy [2, 7]: 97.20%
- Mean determined concentration [2, 7]: 1.944 µg/mL
- Accuracy [2, 8]: 99.00%
- Mean determined concentration [2, 8]: 0.099 µg/mL
- Accuracy [2, 9]: 99.37%
- Mean determined concentration [2, 9]: 0.795 µg/mL
- Accuracy [2, 10]: 99.75%
- Mean determined concentration [2, 10]: 1.995 µg/mL
- Accuracy [2, 11]: 93.00%
- Mean determined concentration [2, 11]: 0.093 µg/mL
- Accuracy [2, 12]: 93.25%
- Mean determined concentration [2, 12]: 0.746 µg/mL
- Accuracy [2, 13]: 95.55%
- Mean determined concentration [2, 13]: 1.911 µg/mL

Reference: paper PMC3929521, “Optimization (Central Composite Design) and Validation of HPLC Method for Investigation of Emtricitabine Loaded Poly(lactic-co-glycolic acid) Nanoparticles: In Vitro Drug Release and In Vivo Pharmacokinetic Studies” (The Scientific World Journal, 2014)
